Target: Lysine-specific demethylase 1 (LSD1) (Homo sapiens, UniProt O60341)
Experiment: in vitro LSD1 activity assay
Assay type: biochemical
Details: read-out: % inhibition at 1000 nM

C=C1C(=O)O[C@H]2[C@H]1[C@H](OC(=O)/C(C)=C/CO)CC(=C)[C@@H]1C=C[C@@](C)(O)[C@H]21 [eupalinilide B]
inhibition at 1 µM: 78%
